# Reference: PubChem BioAssay AID2060891 (Molecular Pharmacology Branch, DTP, NCI, 2025)
# Test system: K98450-129-R-PDC complex spheroid growth, percent test/control
# Test: Anticancer human tumor K98450-129-R-PDC patient-derived colon adenocarcinoma cell line growth inhibition [RAS]
# Conditions: for IC50: curve of first compound; for viability, T/C: stronger effect = lower value
# How it was run: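 Multi-cell-type spheroids: tumor cells plus HUVEC endothelial cells and mesenchymal stem cells. RAS-pathway inhibitors were combined with targeted agents, each dosed in half-log steps down from clinical Cmax, or from 10 microM when Cmax was unknown.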
# [1] = second compound 0.000949 µM, first compound 0.0316 µM
# [2] = second compound 0.000949 µM, first compound 0.1 µM
# [3] = second compound 0.000949 µM, first compound 0.316 µM
# [4] = second compound 0.000949 µM, first compound 1 µM
# [5] = second compound 0.000949 µM, first compound 3.16 µM
# [6] = second compound 0.000949 µM, first compound 10 µM
# [7] = second compound 0.003 µM, first compound 0.0316 µM
# [8] = second compound 0.003 µM, first compound 0.1 µM
# [9] = second compound 0.003 µM, first compound 0.316 µM
# [10] = second compound 0.003 µM, first compound 1 µM
# [11] = second compound 0.003 µM, first compound 3.16 µM
# [12] = second compound 0.003 µM, first compound 10 µM
# [13] = second compound 0.00949 µM, first compound 0.0316 µM
# [14] = second compound 0.00949 µM, first compound 0.1 µM
# [15] = second compound 0.00949 µM, first compound 0.316 µM
# [16] = second compound 0.00949 µM, first compound 1 µM
# [17] = second compound 0.00949 µM, first compound 3.16 µM
# [18] = second compound 0.00949 µM, first compound 10 µM
# [19] = second compound 0.03 µM, first compound 0.0316 µM
# [20] = second compound 0.03 µM, first compound 0.1 µM
# [21] = second compound 0.03 µM, first compound 0.316 µM
# [22] = second compound 0.03 µM, first compound 1 µM
# [23] = second compound 0.03 µM, first compound 3.16 µM
# [24] = second compound 0.03 µM, first compound 10 µM
# [25] = second compound 0.0949 µM, first compound 0.0316 µM
# [26] = second compound 0.0949 µM, first compound 0.1 µM
# [27] = second compound 0.0949 µM, first compound 0.316 µM
# [28] = second compound 0.0949 µM, first compound 1 µM
# [29] = second compound 0.0949 µM, first compound 3.16 µM
# [30] = second compound 0.0949 µM, first compound 10 µM
# [31] = second compound 0.3 µM, first compound 0.0316 µM
# [32] = second compound 0.3 µM, first compound 0.1 µM
# [33] = second compound 0.3 µM, first compound 0.316 µM
# [34] = second compound 0.3 µM, first compound 1 µM
# [35] = second compound 0.3 µM, first compound 3.16 µM
# [36] = second compound 0.3 µM, first compound 10 µM
# 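Further: spheroids exposed to agents for seven days before the viability readout.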
# 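Wherever viability, T/C is given: luminescence used as a proxy for viable cell amount.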
smiles,measurement,setting,value
CC(=O)OC12COC1CC(O)C1(C)C(=O)C(O)C3=C(C)C(OC(=O)C(O)C(NC(=O)OC(C)(C)C)c4ccccc4)CC(O)(C(OC(=O)c4ccccc4)C21)C3(C)C (stereo unspecified) + CCn1c(-c2cccnc2C(C)OC)c2c3cc(ccc31)N1CCOC(CC(NC(=O)C(C(C)C)N(C)C(=O)C3(F)CCN(C(=O)C#CC(C)(C)N(C)C)CC3)C(=O)N3CCCC(N3)C(=O)OCC(C)(C)C2)C1,IC50,second compound 0.000949 µM,0.19 µM
same,IC50,second compound 0.003 µM,0.0431 µM
same,IC50,second compound 0.00949 µM,< 0.0316 µM
same,IC50,second compound 0.03 µM,< 0.0316 µM
same,IC50,second compound 0.0949 µM,< 0.0316 µM
same,IC50,second compound 0.3 µM,< 0.0316 µM
same,"viability, T/C",[1],69.7%
same,"viability, T/C",[2],66.1%
same,"viability, T/C",[3],37.2%
same,"viability, T/C",[4],24.6%
same,"viability, T/C",[5],25.8%
same,"viability, T/C",[6],24.8%
same,"viability, T/C",[7],52.4%
same,"viability, T/C",[8],43.6%
same,"viability, T/C",[9],23.8%
same,"viability, T/C",[10],19.7%
same,"viability, T/C",[11],21.4%
same,"viability, T/C",[12],20.1%
same,"viability, T/C",[13],40.6%
same,"viability, T/C",[14],25.5%
same,"viability, T/C",[15],19.9%
same,"viability, T/C",[16],18.7%
same,"viability, T/C",[17],19.5%
same,"viability, T/C",[18],18.1%
same,"viability, T/C",[19],30.9%
same,"viability, T/C",[20],28.2%
same,"viability, T/C",[21],19.2%
same,"viability, T/C",[22],17.7%
same,"viability, T/C",[23],19.7%
same,"viability, T/C",[24],20.4%
same,"viability, T/C",[25],29.6%
same,"viability, T/C",[26],26.9%
same,"viability, T/C",[27],18.9%
same,"viability, T/C",[28],19%
same,"viability, T/C",[29],18.8%
same,"viability, T/C",[30],18.4%
same,"viability, T/C",[31],29.5%
same,"viability, T/C",[32],22.7%
same,"viability, T/C",[33],19.1%
same,"viability, T/C",[34],16.3%
same,"viability, T/C",[35],16.9%
same,"viability, T/C",[36],18.6%
NC1c2ccccc2OC12CCN(c1cnc3c(N4CCCc5ncccc54)n[nH]c3n1)CC2 (stereo unspecified) + CCn1c(-c2cccnc2C(C)OC)c2c3cc(ccc31)N1CCOC(CC(NC(=O)C(C(C)C)N(C)C(=O)C3(F)CCN(C(=O)C#CC(C)(C)N(C)C)CC3)C(=O)N3CCCC(N3)C(=O)OCC(C)(C)C2)C1,IC50,second compound 0.000949 µM,< 0.0316 µM
same,IC50,second compound 0.003 µM,< 0.0316 µM
same,IC50,second compound 0.00949 µM,< 0.0316 µM
same,IC50,second compound 0.03 µM,< 0.0316 µM
same,IC50,second compound 0.0949 µM,< 0.0316 µM
same,IC50,second compound 0.3 µM,< 0.0316 µM
same,"viability, T/C",[1],44.8%
same,"viability, T/C",[2],23.5%
same,"viability, T/C",[3],11%
same,"viability, T/C",[4],7.16%
same,"viability, T/C",[5],6.94%
same,"viability, T/C",[6],8.73%
same,"viability, T/C",[7],21.5%
same,"viability, T/C",[8],12.4%
same,"viability, T/C",[9],7.71%
same,"viability, T/C",[10],6.76%
same,"viability, T/C",[11],6.52%
same,"viability, T/C",[12],7.13%
same,"viability, T/C",[13],15.6%
same,"viability, T/C",[14],9.32%
same,"viability, T/C",[15],7.2%
same,"viability, T/C",[16],6.45%
same,"viability, T/C",[17],6.54%
same,"viability, T/C",[18],7.85%
same,"viability, T/C",[19],12.8%
same,"viability, T/C",[20],9.35%
same,"viability, T/C",[21],7.81%
same,"viability, T/C",[22],6.41%
same,"viability, T/C",[23],6.04%
same,"viability, T/C",[24],6.71%
same,"viability, T/C",[25],11%
same,"viability, T/C",[26],8.32%
same,"viability, T/C",[27],6.62%
same,"viability, T/C",[28],6.26%
same,"viability, T/C",[29],5.17%
same,"viability, T/C",[30],7.13%
same,"viability, T/C",[31],9.99%
same,"viability, T/C",[32],6.92%
same,"viability, T/C",[33],6.83%
same,"viability, T/C",[34],6.04%
same,"viability, T/C",[35],5.35%
same,"viability, T/C",[36],6.26%
Nc1ccn(C2OC(CO)C(O)C2(F)F)c(=O)n1 (stereo unspecified) + CCn1c(-c2cccnc2C(C)OC)c2c3cc(ccc31)N1CCOC(CC(NC(=O)C(C(C)C)N(C)C(=O)C3(F)CCN(C(=O)C#CC(C)(C)N(C)C)CC3)C(=O)N3CCCC(N3)C(=O)OCC(C)(C)C2)C1,IC50,second compound 0.000949 µM,0.0184 µM
same,IC50,second compound 0.003 µM,0.00933 µM
same,IC50,second compound 0.00949 µM,< 0.00316 µM
same,IC50,second compound 0.03 µM,< 0.00316 µM
same,IC50,second compound 0.0949 µM,< 0.00316 µM
same,IC50,second compound 0.3 µM,< 0.00316 µM
same,"viability, T/C","second compound 0.000949 µM, first compound 0.00316 µM",73.8%
same,"viability, T/C","second compound 0.000949 µM, first compound 0.01 µM",43%
same,"viability, T/C",[1],51.7%
same,"viability, T/C",[2],39.8%
same,"viability, T/C",[3],32.4%
same,"viability, T/C",[4],25.3%
same,"viability, T/C","second compound 0.003 µM, first compound 0.00316 µM",65.6%
same,"viability, T/C","second compound 0.003 µM, first compound 0.01 µM",43.6%
same,"viability, T/C",[7],42.4%
same,"viability, T/C",[8],26.9%
same,"viability, T/C",[9],24.5%
same,"viability, T/C",[10],17%
same,"viability, T/C","second compound 0.00949 µM, first compound 0.00316 µM",49.1%
same,"viability, T/C","second compound 0.00949 µM, first compound 0.01 µM",38.4%
same,"viability, T/C",[13],29.8%
same,"viability, T/C",[14],21.9%
same,"viability, T/C",[15],19.9%
same,"viability, T/C",[16],18.1%
same,"viability, T/C","second compound 0.03 µM, first compound 0.00316 µM",39%
same,"viability, T/C","second compound 0.03 µM, first compound 0.01 µM",34.8%
same,"viability, T/C",[19],26.4%
same,"viability, T/C",[20],20.7%
same,"viability, T/C",[21],20.6%
same,"viability, T/C",[22],17.3%
same,"viability, T/C","second compound 0.0949 µM, first compound 0.00316 µM",32.4%
same,"viability, T/C","second compound 0.0949 µM, first compound 0.01 µM",37.1%
same,"viability, T/C",[25],25.7%
same,"viability, T/C",[26],21.2%
same,"viability, T/C",[27],20.8%
same,"viability, T/C",[28],16.8%
same,"viability, T/C","second compound 0.3 µM, first compound 0.00316 µM",33.5%
same,"viability, T/C","second compound 0.3 µM, first compound 0.01 µM",32.1%
same,"viability, T/C",[31],26.6%
same,"viability, T/C",[32],19.1%
same,"viability, T/C",[33],19.5%
same,"viability, T/C",[34],15.6%
